Patent US20260250318A1, “COMPOSITIONS AND METHODS FOR CROSSING THE BLOOD BRAIN BARRIER” (VOYAGER THERAPEUTICS, INC., priority 2022, published 2026)

Test system: brains, heart, liver, muscle, and DRG of the NHPs
Assay: Maturation of TTM-001 and TTM-002 capsids, NGS enrichment in NHP tissues
Format: in vivo
Description: This Example describes maturation of the AAV9 capsid variants, TTM-001 (SEQ ID NO: 981 (amino acid) and 983 (DNA), comprising SEQ ID NO: 941 (encoded by SEQ ID NO: 942)) and TTM-002 (SEQ ID NO: 982 (amino acid) and 984 (DNA), comprising SEQ ID NO: […] (encoded by SEQ ID NO: 944)) in NHPs to further enhance their transduction and biodistribution in the central nervous system as well as other tissues, and evolve the AAV capsid variants to provide further cross-species compatibility. Two approaches were used to mature the TTM-001 and TTM-002 capsid sequences in order to randomize and mutate within and around the peptide insert comprised within loop IV of the capsid variant. […] In the first maturation approach, sets of three contiguous amino acids were randomized across the mutagenesis region in the TTM-001 and TTM-002 sequences, which spanned from position 450 to position 466, numbered according to SEQ ID NO: 981 and 982. In the second maturation approach, mutagenic primers were used to introduce point mutations at a low frequency, scattered across the mutagenesis region in the TTM-001 and TTM-002 sequences ranging from position 449 to position 466, numbered according to SEQ ID NO: 981 and 982. AAV capsid variants arising from each maturation approach for TTM-001 and TTM-002 were pooled together, for subsequent testing and characterization in NHPs.
The library of pooled matured AAV capsid variants generated using the first maturation approach and the second maturation approach for the TTM-001 and TTM-002 AAV capsid variants were injected into two NHPs. […] Following RNA recovery and RT-PCR amplification, a systematic NGS enrichment analysis was performed to calculate the fold enrichment ratio relative to an AAV9 control, and the peptides comprised within the variants were identified.
Following the RNA recovery and NGS analysis from the second maturation approach, approximately 680,000 capsid variants were identified. The 680,000 matured capsid variants were then filtered based on samples with a raw virus count greater than 10 and a coefficient of variance (CV) of less than 1, which was calculated for each peptide across the brain samples taken from the two NHPs. […] Using this filtering criteria, this led to approximately 64,000 matured capsid variants.

[1] = NHP DRG, NGS, relative to AAV9 control
[2] = NHP brain, NGS, relative to AAV9 control
[3] = NHP heart, NGS, relative to AAV9 control
[4] = NHP liver DNA, NGS, relative to AAV9 control
[5] = NHP liver RNA, NGS, TTM-001 and TTM-002 matured AAV capsid variants, relative to AAV9 control
[6] = NHP muscle, NGS, relative to AAV9 control

Row | Sequence | Fold Enrichment relative to AAV9, DRG (NHP) (NGS fold-enrichment, DRG, NHP, relative to AAV9) [fold] | Fold Enrichment relative to AAV9, Brain (NHP) (NGS fold-enrichment, brain, NHP, relative to AAV9) [fold] | Fold Enrichment relative to AAV9, Heart (NHP) (NGS fold-enrichment, heart, NHP, relative to AAV9) [fold] | Fold Enrichment relative to AAV9, Liver DNA (NHP) (NGS fold-enrichment, liver DNA, NHP, relative to AAV9) [fold] | Fold Enrichment relative to AAV9, Liver RNA (NHP) (NGS fold-enrichment, liver RNA, NHP, relative to AAV9) [fold] | Fold Enrichment relative to AAV9, Muscle (NHP) (NGS fold-enrichment, muscle, NHP, relative to AAV9) [fold] | Fold Enrichment relative to AAV9, DRG (NHP) [1] [fold] | Fold Enrichment relative to AAV9, Brain (NHP) [2] [fold] | Fold Enrichment relative to AAV9, Heart (NHP) [3] [fold] | Fold Enrichment relative to AAV9, Liver DNA (NHP) [4] [fold] | Fold Enrichment relative to AAV9, Liver RNA (NHP) [5] [fold] | Fold Enrichment relative to AAV9, Muscle (NHP) [6] [fold]
1 | KTINGSGSPHSYYSNQQT | 0.000 | 0.000 | 0.000 | 2.856 | 10.680 | 0.000 |  |  |  |  |  | 
2 | KTINGSGSPHVNCQNQQT |  |  |  |  |  |  | 0.000 | 0.000 | 0.000 | 6.122 | 30.010 | 0.000
3 | KTINGSGSPHVPWQNQQT |  |  |  |  |  |  | 0.000 | 0.000 | 0.000 | 3.435 | 25.294 | 0.000
4 | KTINGSGSPHVYHQNQQT |  |  |  |  |  |  | 0.000 | 0.000 | 0.000 | 1.733 | 14.770 | 0.000
5 | KTINGSGSPHVYYQNQQT |  |  |  |  |  |  | 0.000 | 0.944 | 0.246 | 2.173 | 53.294 | 5.268
6 | KTINGSGSPHWSYQNQQT |  |  |  |  |  |  | 0.000 | 0.000 | 0.000 | 3.751 | 28.607 | 0.000
7 | KTINGSGSPHWVAQNQQT |  |  |  |  |  |  | 0.000 | 0.000 | 0.000 | 3.634 | 11.703 | 0.000
8 | KTINGSGSPHWVPQNQQT |  |  |  |  |  |  | 0.000 | 0.000 | 0.000 | 3.219 | 22.907 | 0.000
9 | KTINGSGSPHYGIQNQQT |  |  |  |  |  |  | 0.000 | 0.000 | 0.000 | 1.076 | 30.908 | 0.000
10 | KTINGSGSPHYRYQNQQT |  |  |  |  |  |  | 0.000 | 0.000 | 0.000 | 1.027 | 14.107 | 0.000
11 | KTINGSISPHCPAQNQQT |  |  |  |  |  |  | 0.000 | 0.000 | 0.000 | 0.556 | 24.932 | 0.000
12 | KTINGSLSPHFWAQNQQT |  |  |  |  |  |  | 0.000 | 0.000 | 0.000 | 2.041 | 43.190 | 0.000
13 | KTINGSRSPHAWAQNQQT (peptide inserted in AAV capsid) |  |  |  |  |  |  | 0.000 | 0.000 | 0.000 | 6.838 | 31.146 | 0.000
